Where two headings read alike, the source gives them in different places.
Tested on: NOx concentration in blood
Conditions: male SD rats, blood over 4 hours after last administration, FIG. 1

In the case of `N[C@@H](CCC(=O)N[C@@H](CS)C(=O)NCC(=O)O)C(=O)O` [glutathione, γ-L-Glu-L-Cys-Gly], the “amount of increase in the NOx concentration in blood plasma from the baseline” value (25 mg/kg/day reduced glutathione orally once a day for three days, compared to control group) is reported as “same tendency” and the “amount of increase in the NOx concentration in blood plasma from the baseline” value (50 mg/kg/day reduced glutathione orally once a day for three days, compared to control group (P<0.05)) is reported as “significantly increased”.

From patent publication US12465584B2, “Agent for elevating nitric oxide concentration” (KYOWA HAKKO BIO CO., LTD., priority 2013, dated 2025)
